We go through two molecules from patent US11596643B2 (Sichuan Yingrui Pharmaceutical Technology Company, priority 2019, dated 2023).

Values after ≈ are worked out from the molar mass of the structure shown.

The subject of one data set is HT-29 colon cancer cells. Briefly: In-vitro cytotoxicity test (CCK-8). The data set is classed as cell-based. As to the method:
(§1) In-vitro cytotoxicity test: HT-29 colon cancer cells, HepG-2 liver cancer cells, SMMC7721 liver cancer cells, SKOV3 ovarian cancer cells and MCF-7 breast cancer cells that were growing at the logarithmic phase were collected. The concentration of cell suspension was adjusted, and 100 uL of the cell suspension was added per well, then the cells were plated so that the density of cells to be tested was 4000 cells/well (the marginal wells being filled with a sterile PBS). Incubation was performed for 24 hours at 5% CO2 and 37° C. Then the medium was discarded, and pectin-adriamycin or adriamycin with a concentration gradient (containing 0.125, 0.25, 0.5, 1.0, 2.0, 4.0, 8.0 and 16.0 ug/mL of […]) was added, and three repetitions were set for each concentration. Then incubation was performed for 48 hours in an incubator at 5% CO2 and 37° C. 10 μl of a CCK-8 solution was added to each well to continue cultivation for 2 hours. The absorbance of each well at 450 nm was measured with an Enzyme-labelled meter, and IC50 values of pectin-adriamycin and adriamycin for various cancer cells were calculated.

Data set [1] has as its system HepG-2 liver cancer cells. Briefly: In-vitro cytotoxicity test (CCK-8). The data set is classed as cell-based. As to the method:
as §1

Data set [2] relates to MCF-7 breast cancer cells. Briefly: In-vitro cytotoxicity test (CCK-8). The data set is classed as cell-based. As to the method:
as §1

The subject of data set [3] is SKOV3 ovarian cancer cells. Briefly: In-vitro cytotoxicity test (CCK-8). The data set is classed as cell-based. As to the method: as §1
Data set [4] deals with SMMC7721 liver cancer cells. Nature of the data set: In-vitro cytotoxicity test (CCK-8). The data set is classed as cell-based. As for the experimental part: as §1
The subject of data set [5] is 4T1 breast cancer. Briefly: In-vivo pharmacodynamic test, tumor-bearing mice. The following applies: 4T1 breast cancer tumor-bearing mice, 5 mg/kg adriamycin equivalent, intravenously injected 4 times. As to the method: (§2) In-vivo pharmacodynamic test: H22 liver cancer cells, 4T1 breast cancer cells, EMT6 breast cancer cells and HT-29 colon cancer cells that were growing at logarithmic phase were collected, and the concentration of the cell suspension was adjusted to 3×10^7 cells/mL. The cells were subcutaneously inoculated into right upper extremity of Balb/c mice or nude mice with 0.1 mL per mouse (containing about 3×10^6 cells). After the average tumor volume of the inoculated mice was reached 100 mm^3, the tumor-bearing mice were randomly divided into a negative control group (with 0.9% sodium chloride injection), an adriamycin control group (5 mg/kg) and a pectin-adriamycin experimental group (the equivalent of adriamycin being 5 mg/kg) respectively, 8 mice for each group, the above various drugs were intravenously injected for 4 times in total. The tumor volume change and the body weights were recorded, and the equation for volume calculation was as follows: volume=(length×width^2)/2.

A further data set concerns EMT-6 breast cancer. Nature of the data set: In-vivo pharmacodynamic test, tumor-bearing mice. To be noted: EMT-6 breast cancer tumor-bearing mice, 5 mg/kg adriamycin equivalent, intravenously injected 4 times. As to the method:
as §2

The test system of data set [6] is H22 liver cancer. Nature of the data set: In-vivo pharmacodynamic test, tumor-bearing mice. The following applies: 5 mg/kg adriamycin equivalent, intravenously injected 4 times. As to the method:
as §2

Data set [7] in a line: Body weight and death of tumor-bearing mice in the in-vivo pharmacodynamic test. As to the method:
as §2

A further data set relates to HT-29 colon cancer. Nature of the data set: In-vivo pharmacodynamic test, tumor-bearing mice. The following applies: HT-29 colon cancer tumor-bearing mice, 5 mg/kg adriamycin equivalent, intravenously injected 4 times. As for the experimental part:
as §2

Another data set is described as follows: Solubility in water. The data set is classed as physicochemical.
The test system of data set [8] is H22 liver cancer. Briefly: Comparison with the control compound, H22 liver cancer mice tumor model. The data set is classed as in vivo.
Data set [9] concerns 4T1 breast cancer. Nature of the data set: Comparison with the control compound, 4T1 breast cancer mice tumor model. The data set is classed as in vivo.
Setting [10] is: tumor-bearing mice, 5 mg/kg adriamycin equivalent, i.v. 4 times.
Where [11] appears, read: Example 16, conjugate intravenous, control intraperitoneal.

Take `COc1cccc2c1C(=O)c1c(O)c3c(c(O)c1C2=O)C[C@@](O)(C(=O)CO)C[C@@H]3O[C@H]1C[C@H](N)[C@H](O)[C@H](C)O1` [adriamycin, reference compound]: the 50% inhibitory concentration (IC50) was found to be 10.9 µg/mL (≈ 20.1 µM) with HT-29 colon cancer cells (Homo sapiens, HT-29, 48 hours incubation); 4.38 µg/mL (≈ 8.05 µM) in data set [1] (Homo sapiens, HepG2, 48 hours incubation); 3.97 µg/mL (≈ 7.3 µM) in data set [2] (Homo sapiens, MCF7, 48 hours incubation); 5.7 µg/mL (≈ 10.5 µM) in [3] (Homo sapiens, SK-OV-3, 48 hours incubation); 2.62 µg/mL (≈ 4.82 µM) in data set [4] (Homo sapiens, SMMC-7721, 48 hours incubation). Besides, the “tumor growth inhibition rate” value stood at 50.61% with 4T1 breast cancer [5], 56.95% in the data set on EMT-6 breast cancer and 53.42% in the data set on H22 liver cancer [6]. In addition, the body weight decrease entry in [7] (mouse, in vivo, iv, 5 mg/kg) is given as “more than 15%”. Further, the “body weights of the mice” value in data set [7] (mouse, in vivo, iv, 5 mg/kg) is reported as “significantly decreased”. Besides, the death of mice result in data set [7] (setting [10]) is reported as “minormice died”.

As for “modified pectin-PEG8-VAPABC-adriamycin [pectin-adriamycin conjugate]”, the “IC50, HT-29 colon cancer” value in the data set with HT-29 colon cancer cells (48 hours incubation) is 10.74 µg/mL. Further, the “IC50, HepG-2 liver cancer” value in [1] (48 hours incubation) was found to be 4.11 µg/mL. Also, the “IC50, MCF-7 breast cancer” value in data set [2] (48 hours incubation) came out at 3.961 µg/mL. Also, the “IC50, SKOV3 ovarian cancer” value in data set [3] (48 hours incubation) is 5.488 µg/mL. The “IC50, SMMC7721 liver cancer” value in data set [4] (48 hours incubation) was found to be 2.31 µg/mL. The “tumor growth inhibition rate” value with 4T1 breast cancer [5] is recorded as 78.1%; in the data set on EMT-6 breast cancer it was 71.68%; in the data set with H22 liver cancer [6], 72.98%. Moreover, the curative effect result with HT-29 colon cancer is reported as “better than that of the adriamycin control”. Further, in [7] (setting [10]), the “body weights of the mice” value is “not significantly decreased”. The death of mice entry in data set [7] (setting [10]) is “no a mouse died”. In addition, the Solubility in water in “Solubility in water” was 10 mg/ml, solubility being. Also, the tumor inhibition rate in the data set with H22 liver cancer [8] (setting [11]) amounted to 70.83%; in the data set with 4T1 breast cancer [9] (setting [11]) it was 76.20%. Besides, the inhibition time result in the data set with H22 liver cancer [8] (same dosage, versus control compound (FIG. 8)) was “longer”; in the data set with 4T1 breast cancer [9] (same dosage, versus control compound (FIG. 9)) it was “longer”.

In general, IC50 refers to the midpoint of a concentration-inhibition curve. High values mean weaker potency in that assay, low ones greater potency in that assay.
